What follows are compounds tested on SARS-CoV-2 (assay: Antiviral activity against SARS-CoV-2 USA-WA1/2020 infected in Vero E6 cells assessed as reduction in viral plaque formation incubated for 3 days by plaque reduction neutralization assay). Details: Severe acute respiratory syndrome coronavirus 2, USA-WA1/2020, Vero C1008, 72 h.
Format: functional, organism-based

Structure (SMILES)	EC50 [nM]
CC1(C)[C@@H]2[C@@H](C(=O)N[C@H](C=O)C[C@@H]3CCNC3=O)N(C(=O)OCc3ccccc3)C[C@@H]21	1500
O=C[C@H](C[C@@H]1CCNC1=O)NC(=O)C1CC2(CCCCC2)CN1C(=O)OCc1ccccc1 (stereo partly drawn)	370
O=C[C@H](C[C@@H]1CCNC1=O)NC(=O)C1CC2(CCCC2)CN1C(=O)OCc1ccccc1 (stereo partly drawn)	370

— ChEMBL document CHEMBL5360647, “A Systematic Survey of Reversibly Covalent Dipeptidyl Inhibitors of the SARS-CoV-2 Main Protease” (J Med Chem, 2023)
